In assay [1] the target is T1, PDE1B (Homo sapiens, UniProt Q01064).
T1 construct: made in house; host or cells: Saccharomyces cerevisiae BJ2-54
In words: Inhibition of PDE1B. Format: biochemical.

Assay [2] addresses T2, PDE3A (Homo sapiens, UniProt Q14432).
T2 construct: Plasmid pBB-PDE3A contained the complete open reading frame of PDE3A; made in house; host or cells: Sf9 (baculovirus)
In words: Inhibition of PDE3A. Type of assay: biochemical.

In assay [3] the test system is serum TNFα. As to the kind of experiment: Combined mouse endotoxin-stimulated TNFα release assay (serum TNFα). Type of assay: in vivo. The following applies: female Balb/c mice, i.p., LPS model. The method, then: The purpose of this study was to determine the efficacy of PDE4 inhibitors in vivo in an LPS mouse model together with a determination with respect to central nervous system (CNS) side-effects manifested by a decrease in spontaneous mobility.
The test animals were female Balb/c mice, having an average weight of about 20 g. The PDE4 inhibitors, formulated in 30% Cremophor® EL, were administered via intraperitoneal (i.p.) injections at doses of 0.1, 1.0, 10.0, and 100 mg/kg. Individual dose volumes (about 150 μL) were adjusted based on the body weights measured. One hour later, 5 mg/kg LPS in a final volume of 200 μL was injected via the tail vein to each animal. Ninety minutes following the LPS treatment, the animals were bled and serum samples were collected before being stored at −70° C. until assayed.
For efficacy determination, the serum samples were diluted two-fold and TNFα levels were determined using the CYTOSCREEN® Immunoassay Kit (Biosource International). The data were averaged between triplicate sample subjects for each of the tested compounds.

Assay [4] addresses T3, PDE1A (Homo sapiens, UniProt P54750).
T3 construct: Plasmid pBB-PDE1A3/6 contained the complete open reading frame of PDE1A3; made in house; host or cells: Sf9 (baculovirus)
In words: Inhibition of PDE1A. Type of assay: biochemical.

For assay [5], the target named is T4, PDE1C (Homo sapiens, UniProt Q14123).
T4 construct: Plasmid Hcam3aBB contained the complete open reading frame of PDE1C3; made in house; host or cells: Sf9 (baculovirus)
As to the kind of experiment: Inhibition of PDE1C. Format: biochemical.

The target in assay [6] is T5, PDE2 (Homo sapiens, UniProt O00408).
T5 construct: made in house; host or cells: Saccharomyces cerevisiae strain YI34
As to the kind of experiment: Inhibition of PDE2. Format: biochemical. The method, then:
Recombinant production of human PDE1B, PDE2, PDE4A, PDE4B, PDE4C, PDE4D, PDE5, and PDE7 was carried out similarly to that described in Example 7 of U.S. Pat. No. 5,702,936, incorporated herein by reference, except that the yeast transformation vector employed, which is derived from the basic ADH2 plasmid described in Price et al., Methods in Enzymology, 185, pp. 308–318 (1990), incorporated yeast ADH2 promoter and terminator sequences and the Saccharomyces cerevisiae host was the protease-deficient strain BJ2–54 deposited on Aug. 31, 1998 with the American Type Culture Collection, Manassas, Va., under accession number ATCC 74465. Transformed host cells were grown in 2×SC-leu medium, pH 6.2, with trace metals, and vitamins. After 24 hours, YEP medium-containing glycerol was added to a final concentration of 2×YET/3% glycerol. […]
Phosphodiesterase activity of the preparations was determined as follows. […] The [32P]5′-AMP or [32P]5′-GMP then was quantitatively converted to free [32P]phosphate and unlabeled adenosine or guanosine by the action of snake venom 5′-nucleotidase. […] PDE enzyme was present in quantities that yield <30% total hydrolysis of substrate (linear assay conditions). […] After centrifugation (750×g for 3 minutes) to sediment the charcoal, a sample of the supernatant was taken for radioactivity determination in a scintillation counter and the PDE activity was calculated. […]

T5 sequence (O00408 whole entry): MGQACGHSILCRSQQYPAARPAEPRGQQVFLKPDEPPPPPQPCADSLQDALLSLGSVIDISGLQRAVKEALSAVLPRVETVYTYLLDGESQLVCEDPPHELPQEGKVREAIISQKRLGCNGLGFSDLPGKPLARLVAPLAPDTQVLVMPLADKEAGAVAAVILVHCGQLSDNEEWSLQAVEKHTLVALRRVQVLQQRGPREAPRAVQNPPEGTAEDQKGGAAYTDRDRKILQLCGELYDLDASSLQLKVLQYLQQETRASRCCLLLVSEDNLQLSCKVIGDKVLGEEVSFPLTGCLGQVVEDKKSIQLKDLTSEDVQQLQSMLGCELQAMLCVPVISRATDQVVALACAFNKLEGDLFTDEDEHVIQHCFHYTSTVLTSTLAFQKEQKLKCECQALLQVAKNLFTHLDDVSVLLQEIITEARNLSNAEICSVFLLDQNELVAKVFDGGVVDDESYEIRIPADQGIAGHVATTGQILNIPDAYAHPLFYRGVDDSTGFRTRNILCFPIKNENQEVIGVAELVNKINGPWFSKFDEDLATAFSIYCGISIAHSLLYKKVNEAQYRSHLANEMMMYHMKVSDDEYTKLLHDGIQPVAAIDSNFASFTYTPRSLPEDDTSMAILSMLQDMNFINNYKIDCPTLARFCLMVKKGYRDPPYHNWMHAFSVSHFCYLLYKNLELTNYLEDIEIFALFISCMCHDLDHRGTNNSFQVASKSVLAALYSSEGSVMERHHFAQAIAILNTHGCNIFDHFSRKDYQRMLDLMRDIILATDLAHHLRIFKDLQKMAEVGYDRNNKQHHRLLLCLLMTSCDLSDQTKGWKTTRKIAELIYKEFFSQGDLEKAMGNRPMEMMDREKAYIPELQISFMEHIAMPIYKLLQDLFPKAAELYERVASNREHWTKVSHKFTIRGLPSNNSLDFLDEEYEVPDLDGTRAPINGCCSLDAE
T2 sequence (Q14432 whole entry): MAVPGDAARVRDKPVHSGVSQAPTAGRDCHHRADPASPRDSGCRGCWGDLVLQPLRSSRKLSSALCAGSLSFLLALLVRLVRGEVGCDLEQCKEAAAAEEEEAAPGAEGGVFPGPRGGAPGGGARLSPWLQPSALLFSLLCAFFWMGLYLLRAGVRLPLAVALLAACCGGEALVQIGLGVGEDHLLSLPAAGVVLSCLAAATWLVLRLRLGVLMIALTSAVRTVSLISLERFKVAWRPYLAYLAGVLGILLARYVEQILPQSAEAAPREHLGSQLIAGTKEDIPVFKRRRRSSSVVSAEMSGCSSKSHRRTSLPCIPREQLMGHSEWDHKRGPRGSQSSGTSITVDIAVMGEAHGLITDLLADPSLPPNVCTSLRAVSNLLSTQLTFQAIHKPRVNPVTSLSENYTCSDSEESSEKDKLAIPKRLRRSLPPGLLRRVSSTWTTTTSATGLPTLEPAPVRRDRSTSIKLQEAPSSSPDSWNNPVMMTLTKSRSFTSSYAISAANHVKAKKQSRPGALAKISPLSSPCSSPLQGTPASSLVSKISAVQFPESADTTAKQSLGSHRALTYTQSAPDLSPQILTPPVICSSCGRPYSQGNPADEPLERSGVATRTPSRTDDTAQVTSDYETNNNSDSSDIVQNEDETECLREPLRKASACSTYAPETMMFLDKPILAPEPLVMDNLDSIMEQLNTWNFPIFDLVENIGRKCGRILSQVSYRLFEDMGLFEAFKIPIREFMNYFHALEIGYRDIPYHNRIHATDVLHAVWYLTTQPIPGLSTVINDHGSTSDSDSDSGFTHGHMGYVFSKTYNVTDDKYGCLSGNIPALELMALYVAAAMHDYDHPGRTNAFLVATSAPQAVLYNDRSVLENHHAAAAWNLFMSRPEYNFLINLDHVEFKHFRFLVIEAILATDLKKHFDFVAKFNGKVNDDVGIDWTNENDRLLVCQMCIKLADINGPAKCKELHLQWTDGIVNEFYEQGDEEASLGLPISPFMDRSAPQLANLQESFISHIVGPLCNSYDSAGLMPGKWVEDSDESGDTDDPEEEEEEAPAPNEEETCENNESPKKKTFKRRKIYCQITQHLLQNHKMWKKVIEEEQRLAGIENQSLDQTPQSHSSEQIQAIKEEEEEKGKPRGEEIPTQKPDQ

One may read the IC50 as the concentration needed to halve the response being measured. Take `CCOC(=O)c1c(C)nn(-c2cccc([N+](=O)[O-])c2)c1C` [Example 2, 3,5-dimethyl-1-(3-nitrophenyl)-1H-pyrazole-4-carboxylic acid ethyl ester]: the IC50 came to 25.7 µM in assay [1]; 137 µM in assay [2]; 25.1 µM in assay [4]; 30.2 µM in assay [5]; 21.8 µM in assay [6]. In addition, the results for the “% TNFQ Inhibition” value in assay [3] (10 mg/kg) and in assay [3] (100 mg/kg) were 70% and 100%, respectively.

For the origin of these results see patent US7087634B2, “Cyclic AMP-specific phosphodiesterase inhibitors” (ICOS Corporation, priority 1999, dated 2006).
